Tests used:
[1] = system: Phytophthora infestans; format: in vivo, Phytophthora infestans on tomato; conditions: hydrazone 50 ppm + 50 μM CuCl2.2H2O, applied 24 h before inoculation, assessed 7 days after inoculation, tomato
[2] = system: Leptosphaeria nodorum (LEPTNO); assay: In vitro fungitoxicity of hydrazones with and without copper towards Leptosphaeria nodorum (Example 26); format: cell-based; conditions: compound 0.05 μg/mL, 72 h at 25° C.; for inhibition of growth at 0.05 µg/mL: Parastagonospora nodorum, 72 h, copper-minus medium, read-out: LEPTNO % Inhn. Minus Copper Observed; for LEPTNO % Inhn. Plus Copper Observed: copper-plus medium (CuCl2.2H2O)

Structure (SMILES)	melting point [°C]	TLB % Control [1] [%]	inhibition of growth at 0.05 µg/mL [2] [%]	LEPTNO % Inhn. Plus Copper Observed [2] [%]
COc1cccc(C(=O)N/N=C/c2cc(Br)cc(Br)c2O)c1C [Example 108]	188 to 189	50.9	21.3	97.6
Cc1cc(C)cc(C(=O)N/N=C/c2cc(Br)cc(Br)c2O)c1 [Example 110]	209 to 211	76.4	19.9	98.2
O=C(N/N=C/c1cc(Br)cc(Br)c1O)c1ccc2ccccc2c1 [Example 111]	237 to 239	63.6	16.8	97.4
O=C(N/N=C/c1cc(Br)cc(Br)c1O)c1cc(Cl)cc(Cl)c1 [Example 117]	267 to 269	89.5	28.8	98.5
COc1cccc(C(=O)N/N=C/c2cc(Cl)cc(Br)c2O)c1C [Example 132]	187 to 189	65.5	9.1	97.7
COc1cccc(C(=O)N/N=C/c2cc(Cl)ccc2O)c1C [Example 133]	122 to 128	71.9	8.8	98.5
Cc1cc(C)cc(C(=O)N/N=C/c2cc(Cl)ccc2O)c1 [Example 134]	196 to 199	57.0	4.2	95.3
C/C(=N\NC(=O)c1cccc(Br)c1)c1cc(Cl)cc(Cl)c1O [Example 138]	247 to 253	91.0	4	98.1
COc1ccccc1C(=O)N/N=C(\C)c1cc(Cl)cc(Cl)c1O [Example 141]	307 to 310	52.0	1.5	96.2
C/C(=N\NC(=O)c1ccccc1[N+](=O)[O-])c1cc(Cl)cc(Cl)c1O [Example 142]	250 to 253	79.0	1.1	98.2
O=C(N/N=C/c1cc(Cl)cc(Br)c1O)c1ccc(C(F)(F)F)cc1 [Example 164]	250 to 251	96.5	10.8	98.6
Cc1cccc(C(=O)N/N=C/c2cc(Cl)cc(Br)c2O)c1O [Example 165]	218 to 221	88.4	14.9	98.4
COc1cccc(C(=O)N/N=C/c2cc(Cl)cc(Br)c2O)c1 [Example 166]	166 to 168	71.9	2.6	97.9
Cc1cc(C)cc(C(=O)N/N=C/c2ccccc2O)c1 [Example 167]	203 to 205	67.3	0	95.8
Cc1cc(C)cc(C(=O)N/N=C/c2cc(Cl)cc(Br)c2O)c1 [Example 168]	223 to 226	59.6	13.3	97.7
O=C(N/N=C/c1cc(Br)ccc1O)c1ccc(C(F)(F)F)cc1 [Example 184]	219 to 222	70.9	7.1	97.0
O=C(N/N=C/c1cc(Br)ccc1O)c1cc(Cl)ccc1Cl [Example 186]	196 to 202	61.8	0	97.6
O=C(N/N=C/c1cc(Cl)ccc1O)c1cc(Cl)ccc1Cl [Example 189]	185 to 188	72.7	19.2	95.9
O=C(N/N=C/c1cc(Cl)cc(Br)c1O)c1cc(Cl)ccc1Cl [Example 196]	169 to 173	94.5	4.4	97.7
O=C(N/N=C/c1cc([N+](=O)[O-])cc(Br)c1O)c1cccc(Cl)c1 [Example 201]	276 to 280	50.9	4	96.0
Cc1cc(C)cc(C(=O)N/N=C/c2cc([N+](=O)[O-])cc(Br)c2O)c1 [Example 208]	283 to 300	32.8	5.4	97.0

Structure (SMILES)	melting point [°C]	TLB % Control [1] [%]	inhibition of growth at 0.05 µg/mL [2] [%]	LEPTNO % Inhn. Plus Copper Observed [2] [%]
COc1cc(Br)cc(/C=N/NC(=O)c2cc(C)cc(C)c2)c1O [Example 209]	189 to 193	67.3	17.6	95.9
Cc1cc(C)cc(C(=O)N(/N=C/c2cc(Cl)cc(Cl)c2O)C(C)(C)C)c1 [Example 211]	220 to 227	16.0	7	97.1
CC(C)(C)N(/N=C/c1ccccc1O)C(=O)c1ccccc1 [Example 217]	91 to 104	0.0	0	92.7
Cc1cccc(/C=N/NC(=O)c2ccccc2)c1O [Example 232]	186 to 188	57.6	2.3	97.5
Cc1ccc(/C=N/NC(=O)c2ccccc2)c(O)c1 [Example 234]	179 to 182	72.9	0	94.3
Cc1ccc(O)c(/C=N/NC(=O)c2ccccc2)c1 [Example 235]	192 to 193	80.0	0	96.3
COc1cccc(O)c1/C=N/NC(=O)c1ccccc1 [Example 237]	215 to 216	45.0	0	91.8
Cc1cc(O)c(/C=N/NC(=O)c2ccccc2)cc1Cl [Example 239]	206 to 208	66.1	0.1	97.8
O=C(N/N=C/c1cc(Cl)c(Cl)cc1O)c1ccccc1 [Example 240]	238 to 241	74.6	0	98.1
O=C(N/N=C/c1c(O)ccc(Cl)c1Cl)c1ccccc1 [Example 241]	273 to 274	62.7	0.5	97.0
O=C(N/N=C/c1c(O)cc(Cl)cc1Cl)c1ccccc1 [Example 242]	273 to 274	78.0	6.9	98.0
COc1ccc(Br)c(/C=N/NC(=O)c2ccccc2)c1O [Example 243]	187 to 189	86.4	5.3	96.7
O=C(N/N=C/c1c(F)ccc(F)c1O)c1ccccc1 [Example 244]	206 to 207	62.7	0	96.1
O=C(N/N=C/c1c(O)cccc1F)c1ccccc1 [Example 245]	216 to 218	52.7	0	96.7
Cc1cccc(O)c1/C=N/NC(=O)c1ccccc1 [Example 246]	212 to 213	50.9	0	95.3
O=C(N/N=C/c1c(Cl)ccc(Cl)c1O)c1ccccc1 [Example 247]	204 to 205	84.7	10.1	94.0
O=C(N/N=C/c1cc(Cl)cc(Cl)c1O)c1cccc([N+](=O)[O-])c1 [Example 248]	234 to 237	98.0	12.4	96.3
O=C(N/N=C/c1cc(Cl)cc(Cl)c1O)c1cccc(C(F)(F)F)c1 [Example 249]	165 to 169	100.0	27.8	95.8
O=C(N/N=C/c1cc(Cl)cc(Cl)c1O)c1cccc(OC(F)(F)F)c1 [Example 250]	180 to 182	97.0	8.7	98.1
C/C(=N\NC(=O)c1ccccc1)c1ccc(Cl)cc1O [Example 251]	236 to 237	33.0	3.5	98.1
C/C(=N\NC(=O)c1ccccc1C)c1ccc(Cl)cc1O [Example 252]	214 to 215	28.0	7.8	98.4

Source: patent US20120010075A1 (priority 2009, published 2012)
